Reference: US12187715B2, “Small molecule activators of Tie-2” (EyePoint Pharmaceuticals, Inc., priority 2019, dated 2025)

Assay: Syringability testing (200 g weight on BD 1-mL syringe plunger, 27 G needle)
Type: physicochemical
Conditions: for Syringability of the saturated solutions (in words): undiluted solutions
Method: Syringability testing was carried out by applying 200 g of weight on top of a BD 1-mL syringe plunger and measuring the time required to expel 1 mL of the saturated solutions through a 27 G needle. The times are recorded in TABLE 4. At T=0, 43 seconds were required to expel 1 mL of Compound 2, while 8 seconds were required to expel 1 mL of Compound 4. In contrast, approximately 5 minutes were required to expel only 0.1 mL of Compound 3, based on the very high viscosity of the solution relative to that of the other two.
Syringability test results of the 50% diluted solutions (TABLE 5) indicated a slight increase in viscosity (syringability test for water was 10 sec). All three solutions remained easily syringable.

[1] = 50% diluted solution, T = 2 week
[2] = 50% diluted solution, T = 3 week
[3] = 50% diluted solution, T = 4 week
[4] = 50% diluted solution, T = 2 day
[5] = 50% diluted solution, T = 3 day
[6] = 50% diluted solution, T = 4 day
[7] = 50% diluted solution, T = 7 day
[8] = saturated (undiluted) solution, T = 0
[9] = saturated (undiluted) solution, T = 1 day
[10] = saturated (undiluted) solution, T = 2 day
[11] = saturated (undiluted) solution, T = 3 day

| Compound | Syringability: time to expel 1 mL [1] | Syringability: time to expel 1 mL [2] | Syringability: time to expel 1 mL [3] | Syringability: time to expel 1 mL [4] | Syringability: time to expel 1 mL [5] | Syringability: time to expel 1 mL [6] | Syringability: time to expel 1 mL [7] | Syringability: time to expel 1 mL [8] | Syringability: time to expel 1 mL [9] | Syringability: time to expel 1 mL [10] | Syringability: time to expel 1 mL [11] | Syringability of the saturated solutions (in words) | Syringability: time to expel 1 mL (saturated (undiluted) solution, T = 2 week) | Syringability: time to expel 1 mL (saturated (undiluted) solution, T = 3 week) | Syringability: time to expel 1 mL (saturated (undiluted) solution, T = 4 week) | Syringability: time to expel 1 mL (saturated (undiluted) solution, T = 4 day) | Syringability: time to expel 1 mL (saturated (undiluted) solution, T = 5 day) | Syringability: time to expel 1 mL (saturated (undiluted) solution, T = 6 day) |
| --- | --- | --- | --- | --- | --- | --- | --- | --- | --- | --- | --- | --- | --- | --- | --- | --- | --- | --- |
| COC(=O)N(C)[C@@H](Cc1ccccc1)C(=O)N[C@@H](Cc1ccc(NS(=O)(=O)[O-])cc1)c1csc(-c2cccs2)n1.[Na+] [Compound 2, sodium (4-{(S)-2-{(S)-2-[(methoxycarbonyl)(methyl)amino]-3-phenylpropanamido}-2-[2-(thiophen-2-yl)thiazol-4-yl]ethyl}phenyl)sulfamate] | 14 s | 11 s | 11 s | 10 s | 15 s | 18 s | 15 s | 43 s | 52 s | 65 s | 58 s | syringable | – | – | – | – | – | – |
| COC(=O)N(C)[C@@H](Cc1ccccc1)C(=O)N(C)[C@@H](Cc1ccc(NS(=O)(=O)[O-])cc1)c1csc(-c2cccs2)n1.[Na+] [Compound 4, sodium (4-{(S)-2-{(S)-2-[(methoxycarbonyl)(methyl)amino]-N-methyl-3-phenylpropanamido}-2-[2-(thiophen-2-yl)thiazol-4-yl]ethyl}phenyl)sulfamate] | 13 s | 13 s | 14 s | 12 s | 14 s | 15 s | 12 s | 8 s | 12 s | 15 s | 12 s | syringable | 13 s | 12 s | 13 s | 13 s | 14 s | 14 s |
